Results: PMC11318023, “Discovery of VU6008677: A Structurally Distinct Tricyclic M4 Positive Allosteric Modulator with Improved CYP450 Profile” (ACS Medicinal Chemistry Letters, 2024)
pEC50, pIC50: −log10 of the molar value. Like-named read-outs stand apart in the source and are kept apart here.

What was measured:
[1] = target: T1, human M4 (hM4) (Homo sapiens, UniProt P08173); assay: Calcium mobilization assay, hM4/Gqi5-CHO cells, with EC20 acetylcholine (PAM); settings: hM4/Gqi5-CHO cells; for hM4 pEC50 / hM4 %ACh Max / pEC50: calcium mobilization; for hM4 %ACh Max: maximum response; for pEC50: EC20 fixed concentration of acetylcholine
T1 sequence (P08173 1-479): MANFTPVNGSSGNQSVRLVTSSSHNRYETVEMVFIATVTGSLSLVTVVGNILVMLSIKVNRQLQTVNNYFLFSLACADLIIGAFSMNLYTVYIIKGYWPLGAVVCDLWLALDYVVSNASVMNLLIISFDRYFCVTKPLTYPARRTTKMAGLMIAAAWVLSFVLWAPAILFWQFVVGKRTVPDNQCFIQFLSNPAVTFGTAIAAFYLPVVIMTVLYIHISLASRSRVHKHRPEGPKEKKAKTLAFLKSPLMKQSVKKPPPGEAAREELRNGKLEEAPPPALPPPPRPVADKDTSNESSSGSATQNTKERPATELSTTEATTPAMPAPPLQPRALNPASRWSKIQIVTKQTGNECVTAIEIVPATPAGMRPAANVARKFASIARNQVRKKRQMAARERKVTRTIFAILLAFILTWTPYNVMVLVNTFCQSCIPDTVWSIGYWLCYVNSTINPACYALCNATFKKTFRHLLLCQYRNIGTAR

[2] = Binding in plasma from human, equilibrium dialysis; format: in vitro ADME; settings: for fraction unbound at 6 h, 5 µM: human, plasma, read-out: human fu,plasma
[3] = Binding in plasma from rat, equilibrium dialysis; format: in vitro ADME; settings: read-out: rat fu,plasma
[4] = target: T2, CYP 1A2 (Homo sapiens, UniProt P05177); assay: CYP450 inhibition in pooled human liver microsomes, CYP-specific probe substrates; format: in vitro ADME; settings: pooled HLM, NADPH, CYP-specific probe substrate
T2 sequence (P05177 1-516): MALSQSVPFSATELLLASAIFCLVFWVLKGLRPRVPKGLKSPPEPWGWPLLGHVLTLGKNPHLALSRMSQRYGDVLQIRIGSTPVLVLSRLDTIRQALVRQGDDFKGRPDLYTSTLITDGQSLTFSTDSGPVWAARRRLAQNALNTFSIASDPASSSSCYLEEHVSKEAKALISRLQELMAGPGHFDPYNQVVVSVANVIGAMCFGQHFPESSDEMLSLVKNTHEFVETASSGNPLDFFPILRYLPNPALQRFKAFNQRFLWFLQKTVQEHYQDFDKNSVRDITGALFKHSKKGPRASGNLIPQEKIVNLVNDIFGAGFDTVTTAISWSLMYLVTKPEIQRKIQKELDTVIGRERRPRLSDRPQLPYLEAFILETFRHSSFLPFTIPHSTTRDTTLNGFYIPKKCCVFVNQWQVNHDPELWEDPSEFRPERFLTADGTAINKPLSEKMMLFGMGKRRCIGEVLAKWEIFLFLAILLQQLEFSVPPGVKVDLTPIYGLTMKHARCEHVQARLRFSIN

[5] = Intrinsic clearance in human liver microsomes (substrate depletion), predicted hepatic clearance; format: in vitro ADME; settings: for CLint scaled at 1 µM: pH 7.4, human liver microsomes; for CLhep, human (predicted hepatic clearance): predicted from human microsomal CLint
[6] = target: CYP 2D6 (Homo sapiens, UniProt P10635); assay: CYP450 inhibition in pooled human liver microsomes, CYP-specific probe substrates; format: in vitro ADME; settings: pooled HLM, NADPH, CYP-specific probe substrate
Chain of CYP 2D6 (P10635 whole entry): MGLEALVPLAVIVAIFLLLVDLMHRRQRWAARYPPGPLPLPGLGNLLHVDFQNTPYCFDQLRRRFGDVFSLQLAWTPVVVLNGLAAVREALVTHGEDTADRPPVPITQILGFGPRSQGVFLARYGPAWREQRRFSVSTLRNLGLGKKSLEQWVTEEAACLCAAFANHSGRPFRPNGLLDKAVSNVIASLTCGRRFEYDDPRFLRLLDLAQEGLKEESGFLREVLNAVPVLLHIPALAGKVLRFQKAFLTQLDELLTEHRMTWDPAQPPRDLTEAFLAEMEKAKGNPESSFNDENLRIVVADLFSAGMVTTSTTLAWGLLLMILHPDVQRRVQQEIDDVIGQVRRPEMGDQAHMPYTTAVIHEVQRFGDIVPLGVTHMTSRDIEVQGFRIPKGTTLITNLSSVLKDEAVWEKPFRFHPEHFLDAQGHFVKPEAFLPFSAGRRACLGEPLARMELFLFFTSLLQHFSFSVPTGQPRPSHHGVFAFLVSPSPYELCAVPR

[7] = Intrinsic clearance in rat liver microsomes (substrate depletion), predicted hepatic clearance; format: in vitro ADME; settings: for CLint scaled at 1 µM: pH 7.4, rat liver microsomes; for CLhep, rat (predicted hepatic clearance): predicted from rat microsomal CLint
[8] = target: T3, human M2 (hM2) (Homo sapiens, UniProt P08172); assay: Calcium mobilization assay, hM2/Gqi5-CHO cells, with EC20 acetylcholine; format: cell-based
T3 construct: expressed in transfected cells
T3 sequence (P08172 1-466): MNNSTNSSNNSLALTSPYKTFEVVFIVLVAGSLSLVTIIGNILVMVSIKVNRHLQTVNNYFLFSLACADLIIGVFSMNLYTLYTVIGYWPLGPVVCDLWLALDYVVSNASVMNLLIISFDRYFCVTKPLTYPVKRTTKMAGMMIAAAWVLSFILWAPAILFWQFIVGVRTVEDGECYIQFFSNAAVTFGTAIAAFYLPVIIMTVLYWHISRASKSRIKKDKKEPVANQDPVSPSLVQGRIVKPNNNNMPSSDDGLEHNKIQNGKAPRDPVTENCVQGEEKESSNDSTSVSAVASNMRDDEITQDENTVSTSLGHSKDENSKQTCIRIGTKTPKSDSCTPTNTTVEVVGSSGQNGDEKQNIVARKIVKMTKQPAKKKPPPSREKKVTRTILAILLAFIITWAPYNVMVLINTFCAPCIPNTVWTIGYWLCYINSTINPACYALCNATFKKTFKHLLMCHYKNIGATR
From the text: buffer remained in the cell plates. […] After establishment of a […]

[9] = Binding in brain homogenate from rat, equilibrium dialysis; format: in vitro ADME; settings: rat, brain homogenate, rat brain homogenates, read-out: rat fu,brain
[10] = target: CYP 3A4 (Homo sapiens, UniProt P08684); assay: CYP450 inhibition in pooled human liver microsomes, CYP-specific probe substrates; format: in vitro ADME; settings: pooled HLM, NADPH, CYP-specific probe substrate
Chain of CYP 3A4 (P08684 whole entry): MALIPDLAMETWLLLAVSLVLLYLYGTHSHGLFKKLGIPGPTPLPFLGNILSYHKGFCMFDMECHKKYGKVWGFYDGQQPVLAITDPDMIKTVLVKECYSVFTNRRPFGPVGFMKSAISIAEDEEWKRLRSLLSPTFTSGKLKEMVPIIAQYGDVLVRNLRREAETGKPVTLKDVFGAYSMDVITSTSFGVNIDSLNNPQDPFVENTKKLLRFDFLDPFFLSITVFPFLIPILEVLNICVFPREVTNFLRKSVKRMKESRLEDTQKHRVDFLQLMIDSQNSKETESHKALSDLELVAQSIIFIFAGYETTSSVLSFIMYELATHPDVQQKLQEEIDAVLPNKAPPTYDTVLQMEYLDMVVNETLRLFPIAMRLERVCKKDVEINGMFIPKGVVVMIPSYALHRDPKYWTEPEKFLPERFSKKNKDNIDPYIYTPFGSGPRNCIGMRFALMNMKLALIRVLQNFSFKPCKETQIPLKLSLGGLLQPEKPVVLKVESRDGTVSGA

[11] = target: CYP 2C9 (Homo sapiens, UniProt P11712); assay: as above; format: in vitro ADME; settings: pooled HLM, NADPH, CYP-specific probe substrate
Chain of CYP 2C9 (P11712 whole entry): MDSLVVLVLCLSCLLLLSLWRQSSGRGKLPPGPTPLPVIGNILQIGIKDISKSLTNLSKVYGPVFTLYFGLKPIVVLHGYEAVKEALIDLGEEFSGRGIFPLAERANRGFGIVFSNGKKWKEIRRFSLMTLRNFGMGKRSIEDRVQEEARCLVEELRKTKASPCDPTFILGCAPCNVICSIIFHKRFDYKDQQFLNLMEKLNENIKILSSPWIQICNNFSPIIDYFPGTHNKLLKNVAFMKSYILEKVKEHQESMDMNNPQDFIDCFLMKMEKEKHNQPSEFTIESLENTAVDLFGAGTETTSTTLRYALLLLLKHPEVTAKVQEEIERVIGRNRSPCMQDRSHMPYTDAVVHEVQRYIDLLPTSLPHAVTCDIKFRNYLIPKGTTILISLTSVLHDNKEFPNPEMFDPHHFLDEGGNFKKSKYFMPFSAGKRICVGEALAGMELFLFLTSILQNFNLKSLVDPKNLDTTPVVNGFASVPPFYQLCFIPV

**Q.** With `COc1ccc(CNc2nncc3c2sc2nc(C)c(Cl)c(C)c23)cc1F` [Compound 22a] as the molecule, how does the “hM4 pEC50” value ([1]; EC20 acetylcholine) read?
**A.** The value was 5.88.

**Q.** What about the “hM4 %ACh Max” value ([1]; EC20 acetylcholine) of the same molecule?
**A.** Its value is 69%.

**Q.** What about the pEC50 ([1]; read-out: hM4 EC50) of the same molecule?
**A.** The pEC50 was 5.89.

**Q.** What does the source list for `Cc1nc2sc3c(NC4CC(c5ccncc5)C4)ncnc3c2c(C)c1Cl.Cl` (centres unmarked) [Compound 13h]?
**A.** hM4 pEC50 ([1]; EC20 acetylcholine): 5.82; hM4 %ACh Max ([1]; EC20 acetylcholine): 84%; pEC50 ([1]; read-out: hM4 EC50): 5.82

**Q.** For `Cc1ncc(CNc2ncnc3c2sc2nc(C)c(Cl)c(C)c23)cn1.Cl` [Compound 13b], which “hM4 pEC50” value ([1]; EC20 acetylcholine) is on record?
**A.** Its value is < 5.00.

**Q.** What about the “hM4 %ACh Max” value ([1]; EC20 acetylcholine) of the same molecule?
**A.** The value was 75%.

**Q.** What about the pEC50 ([1]; read-out: hM4 EC50) of the same molecule?
**A.** The pEC50 was < 5.00.

**Q.** What does the source list for `Cc1c(Cl)cnc2sc3c(N4CC5(COC5)C4)ncnc3c12` [Compound 15h]?
**A.** fraction unbound at 6 h, 5 µM [2]: 0.008; fraction unbound at 6 h, 5 µM [3]: 0.031; pIC50 [4]: 6.19; CLint scaled at 1 µM [5]: 147 mL/min/kg; CLhep, human (predicted hepatic clearance) [5]: 18 mL/min/kg; pIC50 [6]: < 4.52; CLint scaled at 1 µM [7]: 334 mL/min/kg; CLhep, rat (predicted hepatic clearance) [7]: 58 mL/min/kg; hM2 EC50 [8]: inactive; fraction unbound at 6 h, 1 µM [9]: 0.003; pIC50 [10]: < 4.52; pIC50 [11]: < 4.52

**Q.** Which results are given for `Cc1nc2oc3c(N(C)C)ncnc3c2c(C)c1Cl.Cl` [Compound 14e]?
**A.** hM4 pEC50 ([1]; EC20 acetylcholine): 5.86; pEC50 ([1]; read-out: hM4 EC50): 5.85

**Q.** For `Cc1c(Cl)cnc2sc3c(N4CCCC4)ncnc3c12` [Compound 15a], which “hM4 pEC50” value ([1]; EC20 acetylcholine) is on record?
**A.** The value was 5.22.

**Q.** And the “hM4 %ACh Max” value ([1]; EC20 acetylcholine)?
**A.** Its value is 45%.

**Q.** What about the pEC50 ([1]; read-out: hM4 EC50) of the same molecule?
**A.** The pEC50 was 5.22.

**Q.** For `Cc1nc2sc3c(N4CC5(COC5)C4)ncnc3c2c(C)c1Cl.Cl` [Compound 13d], which “hM4 pEC50” value ([1]; EC20 acetylcholine) is on record?
**A.** The value was <5.00.

**Q.** What about the “hM4 %ACh Max” value ([1]; EC20 acetylcholine) of the same molecule?
**A.** The value was 71%.

**Q.** What about the EC50 ([1]; read-out: hM4 EC50, as quoted in text in μM, EC20 acetylcholine) of the same molecule?
**A.** The EC50 was > 10 µM.

**Q.** And the pEC50 ([1]; read-out: hM4 EC50)?
**A.** Its pEC50 is < 5.00.

**Q.** What does the source list for `Cc1c(Cl)cnc2sc3c(NCc4ccncc4)ncnc3c12` [Compound 15d]?
**A.** hM4 pEC50 ([1]; EC20 acetylcholine): 6.50; hM4 %ACh Max ([1]; EC20 acetylcholine): 84%; pEC50 ([1]; read-out: hM4 EC50): 6.49

**Q.** With `Cc1nc2sc3c(NC4CC(F)(F)C4)nncc3c2c(C)c1Cl.Cl` [Compound 22k] as the molecule, how does the fraction unbound at 6 h, 5 µM [2] read?
**A.** Its fraction unbound at 6 h, 5 µM is 0.01.

**Q.** What about the fraction unbound at 6 h, 5 µM [3] of the same molecule?
**A.** The fraction unbound at 6 h, 5 µM was 0.057.

**Q.** What about the pIC50 [4] of the same molecule?
**A.** The pIC50 was 6.01.

**Q.** What about the CLint scaled at 1 µM [5] of the same molecule?
**A.** The CLint scaled at 1 µM was 185 mL/min/kg.

**Q.** What about the “CLhep, human (predicted hepatic clearance)” value [5] of the same molecule?
**A.** The value was 19 mL/min/kg.

**Q.** What about the pIC50 [6] of the same molecule?
**A.** Its pIC50 is 4.60.

**Q.** What about the CLint scaled at 1 µM [7] of the same molecule?
**A.** The CLint scaled at 1 µM was 1670 mL/min/kg.

**Q.** What about the “CLhep, rat (predicted hepatic clearance)” value [7] of the same molecule?
**A.** The value was 67 mL/min/kg.

**Q.** What about the pEC50 [8] of the same molecule?
**A.** The pEC50 was 6.59.

**Q.** And the “hM2 % ACh Max” value [8]?
**A.** Its value is 49%.

**Q.** And the fraction unbound at 6 h, 1 µM [9]?
**A.** Its fraction unbound at 6 h, 1 µM is 0.008.

**Q.** What about the pIC50 [10] of the same molecule?
**A.** Its pIC50 is < 4.52.

**Q.** And the pIC50 [11]?
**A.** Its pIC50 is < 4.52.

**Q.** With `Cc1nc2sc3c(N4CC5CC5C4)nncc3c2c(C)c1Cl.Cl` (centres unmarked) [Compound 22c] as the molecule, how does the “hM4 pEC50” value ([1]; EC20 acetylcholine) read?
**A.** The value was 6.29.

**Q.** What about the “hM4 %ACh Max” value ([1]; EC20 acetylcholine) of the same molecule?
**A.** Its value is 73%.

**Q.** What about the pEC50 ([1]; read-out: hM4 EC50) of the same molecule?
**A.** Its pEC50 is 6.29.

**Q.** For `Cc1ncc(CNc2ncnc3c2sc2ncc(Cl)c(C)c23)cn1.Cl` [Compound 15c], which “hM4 pEC50” value ([1]; EC20 acetylcholine) is on record?
**A.** Its value is 6.34.

**Q.** What about the “hM4 %ACh Max” value ([1]; EC20 acetylcholine) of the same molecule?
**A.** The value was 71%.

**Q.** And the pEC50 ([1]; read-out: hM4 EC50)?
**A.** The pEC50 was 6.35.

**Q.** For `Cc1nc2oc3c(NC4CC4)ncnc3c2c(C)c1Cl.Cl` [Compound 14o], which “human fu,plasma” value ([2]; fraction unbound) is on record?
**A.** The value was 0.007.

**Q.** What about the fraction unbound at 6 h, 5 µM [2] of the same molecule?
**A.** Its fraction unbound at 6 h, 5 µM is < 0.01.

**Q.** And the fraction unbound at 6 h, 5 µM [3]?
**A.** Its fraction unbound at 6 h, 5 µM is 0.06.

**Q.** What about the pIC50 [4] of the same molecule?
**A.** Its pIC50 is > 7.00.

**Q.** What about the CLint scaled at 1 µM [5] of the same molecule?
**A.** Its CLint scaled at 1 µM is 37 mL/min/kg.

**Q.** And the “CLhep, human (predicted hepatic clearance)” value [5]?
**A.** Its value is 13 mL/min/kg.

**Q.** What about the pIC50 [6] of the same molecule?
**A.** Its pIC50 is ≤ 4.52.

**Q.** And the CLint scaled at 1 µM [7]?
**A.** Its CLint scaled at 1 µM is 175 mL/min/kg.

**Q.** And the “CLhep, rat (predicted hepatic clearance)” value [7]?
**A.** The value was 50 mL/min/kg.

**Q.** What about the “hM2 EC50” value [8] of the same molecule?
**A.** The value was “inactive”.

**Q.** And the fraction unbound at 6 h, 1 µM [9]?
**A.** The fraction unbound at 6 h, 1 µM was 0.017.

**Q.** What about the pIC50 [10] of the same molecule?
**A.** The pIC50 was ≤ 4.52.

**Q.** What about the pIC50 [11] of the same molecule?
**A.** The pIC50 was ≤ 4.52.
